Read-outs that look alike come from different tables or passages of the source.
Key:
[1] = system: AKHR-mediated ERK1/2 activation; format: cell-based, Bombyx; details: for Dose dependence of PKC inhibitor effect on ERK1/2 activation: inhibitor 0.03 μM to 3 μM, three independent experiments
[2] = system: magnolol-induced lipolysis; details: MEK inhibitor; ref [57]; cited from earlier work
[3] = system: fat body of Bombyx; assay: Lipolysis in the fat body of Bombyx; details: MEK inhibitor treatment; preliminary experiment, data not shown
[4] = system: adipokinetic effect of AKH; details: M. sexta, in vivo; ref [44]; cited from earlier work

## COc1cc2ncnc(Nc3cccc(Cl)c3)c2cc1OC [AG1478]
[1]; AG1478 1 μM, 1 h, 37°C, AKH 5 nM, 5 min, Fig. 9, S2
  Effect on AKH-induced ERK1/2 activation, EGFR inhibitor: no effect on ERK1/2 activation

## CCCCCCCCCCCCCCCCCCOCC(COP(=O)([O-])OCC[N+](C)(C)C)OC (stereo not drawn) [ET-18-OCH3]
[1]; ET-18-OCH3 100 μM, AKH 5 nM, S1
  Effect of PLC inhibitor on ERK1/2 activation: could not block the activation of ERK1/2

## O=C(NCCN1CCC(n2c(=O)[nH]c3ccccc32)CC1)c1cc2cc(F)ccc2[nH]1 [FIPI]
[1]; FIPI 1 μM, 1 hour, AKH 5 nM, 5 min, Fig. 4B, S1
  Effect of PLD inhibitor on ERK1/2 activation: could not block the activation of ERK1/2

## CN(C)CCCn1cc(C2=C(c3c[nH]c4ccccc34)C(=O)NC2=O)c2ccccc21 [GF109203X]
[1]; 1 hour, AKH 5 nM, 5 min
  Dose dependence of PKC inhibitor effect on ERK1/2 activation: decrease in the activation of ERK1/2 stimulated by 5 nM AKH in a dose-dependent manner

## CNC(=O)[C@H](Cc1c[nH]c2ccccc12)NC(=O)[C@@H](CC(=O)NO)CC(C)C [GM6001]
[1]; GM6001 5 μM, 1 h, 37°C, AKH 5 nM, 5 min, Fig. 9, S2
  Effect on AKH-induced ERK1/2 activation, MMP inhibitor: no effect on ERK1/2 activation

## COc1ccc2c(c1)c(C1=C(c3c[nH]c4ccccc34)C(=O)NC1=O)cn2CCCN(C)C [Go6983]
[1]; Go6983 3 μM, 1 h, 37°C, AKH 5 nM, 5 min, Fig. 9
  Effect on AKH-induced ERK1/2 phosphorylation, PKC inhibitor: significant decrease of AKH-induced phosphorylation of ERK1/2
[1]; 1 hour, AKH 5 nM, 5 min
  Dose dependence of PKC inhibitor effect on ERK1/2 activation: decrease in the activation of ERK1/2 stimulated by 5 nM AKH in a dose-dependent manner

## O=S(=O)(NCCNC/C=C/c1ccc(Br)cc1)c1cccc2cnccc12 [H89]
[1]; H89 1 μM to 20 μM, 1 hour, AKH 5 nM, 5 min, mean ± S.E.M (n = 3)
  Dose dependence of inhibition of ERK1/2, PKA inhibitor: Inhibition of ERK1/2 is dependent on the concentration of H89
[1]; H89 10 μM, 1 hour preincubation, 37°C, AKH 0.1 nM to 10 nM, 5 min, mean ± S.E.M (n = 3)
  Effect on ERK1/2 phosphorylation, PKA inhibitor: significantly decreased ERK1/2 phosphorylation
[1]; H89 20 μM, 1 h, 37°C, AKH 5 nM, 5 min, Fig. 9
  Effect on AKH-induced ERK1/2 phosphorylation, PKA inhibitor: significant decrease of AKH-induced phosphorylation of ERK1/2

## COc1cccc(-c2cc(=O)c3ccccc3o2)c1N [PD98059]
[2]
  Effect on magnolol-induced lipolysis: inhibited

## CC(C)(C)n1nc(-c2ccc(Cl)cc2)c2c(N)ncnc21 [PP2]
[1]; PP2 10 μM, 1 h, 37°C, AKH 5 nM, 5 min, Fig. 9, S2
  Effect on AKH-induced ERK1/2 activation, Src inhibitor: no effect on ERK1/2 activation

## N#CC(=C(/N)Sc1ccccc1N)/C(C#N)=C(/N)Sc1ccccc1N [U0126]
[1]; U0126 100 nM, 1 h, 37°C, AKH 5 nM, 5 min, Fig. 9
  Effect on AKH-induced ERK1/2 phosphorylation, MEK inhibitor: significant decrease of AKH-induced phosphorylation of ERK1/2
[3]
  Effect on lipolysis in the fat body of Bombyx: blockade of lipolysis in the fat body of Bombyx

## COc1ccc2c(c1)CC[C@@H]1[C@@H]2CC[C@]2(C)[C@@H](NCCCCCCN3C(=O)C=CC3=O)CC[C@@H]12 [U73122]
[1]; U73122 10 μM, 1 hour, AKH 5 nM, 5 min, Fig. 4A, S1
  Effect of PLC inhibitor on ERK1/2 activation: could not block the activation of ERK1/2

## COC[C@H]1OC(=O)c2coc3c2[C@@]1(C)C1=C(C3=O)[C@@H]2CCC(=O)[C@@]2(C)C[C@H]1OC(C)=O [Wortmanmin, wortmannin]
[1]; wortmannin 1 μM, 1 h, 37°C, AKH 5 nM, 5 min, Fig. 9, S2
  Effect on AKH-induced ERK1/2 activation, PI3K inhibitor: no effect on ERK1/2 activation

## COC(=O)C1=C(C)NC(C)=C(C(=O)OC)C1c1ccccc1[N+](=O)[O-] [nifedipine]
[4]
  Effect of Ca2+ channel inhibitors on adipokinetic effect of AKH: effectively impair the adipokinetic effect of AKH

## COc1ccc(CCN(C)CCCC(C#N)(c2ccc(OC)c(OC)c2)C(C)C)cc1OC (stereo not drawn) [verapamil]
[4]
  Effect of Ca2+ channel inhibitors on adipokinetic effect of AKH: effectively impair the adipokinetic effect of AKH
